Test results reported in patent US20080161258A1, “Hsp and Supraventricular Arrhythmia” (priority 2004, published 2008).
Entries after “also recorded” stand apart in the source; their conditions may differ.

Experiments:
[1] = system: HL-1 cells; test: Calcium current density (ICa++) in paced HL-1 cells; type: cell-based, mouse; conditions: HL-1 cells paced for 4 h; GGA two hours prior to and during pacing; FIG. 5
Experimental: I-V relationships of peak ICα++ in non-paced (CON) and paced (PC) HL-1 cells. ICα++ was recorded using 300-ms voltage steps to between −70 and +70 mV from −80 mV.

[2] = system: dogs subjected to atrial tachypacing; test: Atrial tachycardia-induced remodeling in dogs (atrial tachypacing); type: in vivo, dog; conditions: ATP 400 bpm for 7 days
Experimental: The effect of HSP induction on in vivo AF-promotion was examined studying the effect of GGA on atrial tachycardia-induced remodeling in dogs (49). Dogs were subjected to atrial tachypacing (ATP) at 400 bpm for 7 days in the absence (ATP, n=5) and presence of oral GGA treatment (120 mg/kg/day, n=3), starting 3 days prior to ATP onset and continued throughout ATP. Results were compared to a non-paced control group (NP, n=5 dogs). Mongrel dogs (20 to 37 kg) were anesthetized with ketamine (5.3 mg/kg IV), diazepam (0.25 mg/kg IV), and halothane (1.5%). Unipolar leads were inserted through jugular veins into the right ventricular (RV) apex and right atrial (RA) appendage and connected to pacemakers (Medtronic) in subcutaneous pockets in the neck. A bipolar electrode was inserted into the RA for stimulation and recording during serial electrophysiological study (EPS). AV block was created by radiofrequency ablation to control ventricular response during atrial tachypacing (ATP). The RV pacemaker was programmed to 80 bpm. For open-chest EPS, dogs were anesthetized with morphine (2 mg/kg SC) and α-chloralose (120 mg/kg IV, followed by 29.25 mg·kg^−1·h^−1), and ventilated mechanically. Body temperature was maintained at 37° C., and a femoral artery and both femoral veins were cannulated for pressure monitoring and drug administration. A median sternotomy was performed, and bipolar electrodes were hooked to the RA and left atrial (LA) appendages for recording and stimulation. A programmable stimulator (Digital Cardiovascular Instruments) was used to deliver twice-threshold currents. Five silicon sheets containing 240 bipolar electrodes were sutured onto the atrial surfaces as previously described.^6-8http://circ.ahajournals.org/cgi/content/full/110/16/2313-R7-155347http://circ.ahajournals.org/cgi/content/full/110/16/2313-R8-155347 Atrial effective refractory periods (ERPs) were measured at multiple basic cycle lengths (BCLs) in the RA and LA appendages. AF vulnerability was determined as the percentage of atrial sites at which AF could be induced by single extrastimuli. After 24 hours for recovery, a baseline closed-chest EPS was performed under ketamine/diazepam/isoflurane anesthesia, and then ATP (400 bpm) was initiated. Closed-chest EPS was repeated at day 7 of ATP, and a final open-chest EPS was performed under morphine/α-chloralose anesthesia.

[3] = system: HSP27 and HSP70 expression in HL-1 myocytes; test: HSP expression in paced HL-1 myocytes (Western blot); type: cell-based, mouse; conditions: 0.1 μM GGA two hours prior to and during pacing, FIG. 3A
Experimental: (§1) The HL-1 atrial myocytes, developed from adult mouse atria^29 were obtained from Dr. William Claycomb (Louisiana State University, New Orleans, La., USA) and cultured as described before.^28
HL-1 myocytes (≧1×10^6 myocytes) were cultured on coverslips and subjected to a 10-fold rate increase (rapid pacing) by electrical field stimulation (5 Hz, 1.5 V/cm field strength; Grass S88 stimulator).^28 Elevation of HSP expression in cultured myocytes was accomplished in 3 ways: (I) by subjection to a modest heat stress at 43° C. for 30 min followed by overnight incubation at 37° C., (II) by incubation with 0.1 μM geranylgeranylacetone (GGA, gift from M. Kawai, Japan) two hours prior to and during pacing and (III) by transfection of pHSP70-YFP or pHSP27 24 hrs prior to pacing.
For Western-blot analysis, frozen RAAs and LAAs were used for protein isolation as described previously.^6 For the isolation of proteins from HL-1 myocytes, the cells were lysed by the addition of SDS-PAGE sample buffer followed by sonication before separation on 10% PAA-SDS gels (1.10^5 cells/slot). […] Signals were detected by the ECL-detection method (Amersham, The Netherlands) and quantified by densitometry. […]

[4] = system: HL-1 myocytes; test: Pacing-induced myolysis in HL-1 myocytes (myosin immunofluorescence); type: cell-based, mouse
From the text: as §1
Lipofectamine (Life technologies, The Netherlands) was used for transient transfections according to instructions of the manufacturer. pHSP70-YFP encodes a functional human HSP70 fused to YFP under control of a CMV promoter. pHSP27 encodes human HSP27 under control of CMV promoter. […]
After subjecting HL-1 myocytes to rapid pacing, the cells were fixed for 10 minutes in 100% methanol (−20° C.), dried and blocked in 5% BSA (20 minutes room temperature). […] Images of FITC, YFP or CY3 and DAPI fluorescence were obtained by using a Leica confocal laser-scanning microscope (Leica TCS SP2).
For the quantification of the amount of myolysis, at least 5 fields were examined with to a total amount of 250-500 myocytes, and myosin disruption (characteristic for myolysis^12) was scored by three independent observers blinded for the experimental groups. […]

[5] = system: HL-1 cells; test: Calcium transients and cell shortening in tachypaced HL-1 cells; type: cell-based, mouse
Experimental: In addition to myolysis, we studied the effects of short-term tachypacing of HL-1 cells (3 Hz for 2, 3 and 4 hrs) on Ca^2+ transients (CaTs) and cell shortening (CS) in HL-1 cells, with and without pre-treatment to induce HSP expression: the heat shock stress response inducer geranylgeranylacetone (GGA, 10 μM) or heat shock at 43° C. for 20 minutes (HS) or transient transfection with human HSP27 (pHSP27). In brief, myocytes were field-stimulated with 10-ms twice-threshold strength square-wave pulses. CS was measured with a video edge-detector connected to a charge-coupled device. To record CaTs, myocytes were incubated with indo-1 AM (5-μM) for 5-7 min. Myocytes were then superfused at room temperature for at least 40 min to wash out extracellular indicator and to allow for deesterification. Background and cell autofluorescence were cancelled by zeroing the photomultiplier output in a cell without indo-1 loading. Ultraviolet light from a 100-W mercury arc lamp passing through a 340-nm interference filter (±10 nm bandwidth) was reflected by a dichroic mirror into a ×40 oil-immersion fluor objective for excitation of intracellular indo-1 (excitation beam ˜15 μm diameter). Exposure of the cell to UV light (5-10 of every 30-60 s) was controlled by an electronic shutter (Optikon, model T132) to minimize photobleaching. Emitted light (<550 nm) was reflected into a spectral separator, passed through parallel filters at 400 and 500 nm (+10 nm), detected by matched photomultiplier-tubes (Hamamatsu R2560 HA) and electronically filtered at 60 Hz. The ratio of fluorescence signals (R400/500) was digitized (1 kHz) and used as the index of [Ca^2+]i^(48).

## geranylgeranylacetone [GGA]
[1]
  pacing-induced reduction of calcium current density (Ica++): the reduction was prevented; also recorded: strongly
[2]; oral GGA 120 mg/kg/day
  ATP-induced changes (DAF, ERP, vulnerability): almost completely suppressed
[2]; oral GGA 120 mg/kg/day starting 3 days prior to ATP, p<0.05 vs ATP
  duration of induced AF (DAF): 39 ± 15 s
[2]; oral GGA 120 mg/kg/day, basic cycle length 300 ms, p<0.05 vs ATP
  atrial effective refractory period (ERP): 102 ± 3 ms
[2]; oral GGA 120 mg/kg/day, p<0.05 vs ATP
  atrial vulnerability to AF (% of atrial sites in which AF was induced by a single extra stimulus): 13±7%
[3]
  HSP27 expression: substantial elevations; also recorded: induces the expression
  HSP70 expression: substantial elevations; also recorded: induces the expression
[4]; 16 hrs paced HL-1 myocytes, FIG. 3B
  Immunofluorescent staining of myosin in paced myocytes: myosin-staining remains diffusely distributed in the cytoplasm
[4]; HL-1 myocytes, rapid pacing 5 Hz, GGA 0.1 μM two hours prior to and during pacing, or transfection 24 hrs prior to pacing
  pacing-induced myolysis: significant reduction
[5]; HL-1 cells tachypaced 3 Hz for 2, 3 and 4 hrs, GGA 10 μM or transient transfection with pHSP27
  pacing-induced CaT and CS reductions: significantly prevented
[5]; HL-1 cells, 3 Hz, 2 hrs pacing, GGA 10 μM, p=0.01 vs tachypaced without GGA
  reduction of Ca2+ transients (CaT) after pacing: 2%±6%
[5]; HL-1 cells, 3 Hz, 2 hrs pacing, GGA 10 μM, p=0.03 vs tachypaced without GGA
  reduction of cell-shortening (CS) after pacing: 11%±3%
